In brackets after ≈: the same amount, converted by molar mass. Positions of bridges follow the written chain, without caps; N, C: chain ends. Non-standard residues stand in square brackets, D forms with d. Residues, ends and D or L forms follow the SMILES beside them. Groups on a side chain read outwards from the residue. Chains are numbered I, II in the order given. *: point of attachment. Stearoyl = CCCCCCCCCCCCCCCCCC(=O)*; Decanoyl = CCCCCCCCCC(=O)*; Dab = NCC[C@H](N)C(=O)O; Hexanoyl = CCCCCC(=O)*
How the values were obtained:
Assay type in all cases: cell-based
[1] = test system: Escherichia coli (strain DH5α); settings: DH5α
Procedure: (§1) Antimicrobial activity was assayed against Bacillus subtilis (strain BR151), Escherichia coli (strain DH5α) and Pseudomonas aeruginosa (strain PA01). Microdilution broth method was used to determine the minimal inhibitory concentration (MIC). A colony of bacteria was grown in LB-medium overnight at 37° C. The concentration was quantified by measuring absorbance at 600 nm and diluted to OD600=0.1 (1×10^8 CFU/mL). The samples were prepared as stock solutions of 1 mg mL^−1 in H2O and diluted serially by ⅔ in nutrient LB in a 96-well microtiterplate (Cornstar, polypropylene, untreated). The sample solutions (50 μL) were mixed with the diluted bacterial suspension with an OD600 nm of 0.001 (50 μL). […] The plates were incubated at 37° C. until satisfactory growth (18-24 h). For each test, two columns of the plate were kept for sterility control (SC, broth only) and growth control (GC, broth with bacterial inoculums, no antibiotics). 10 μL of a solution of MTT (0.1% in H2O) was added to each well. The minimal inhibitory concentration (MIC) was defined as the lowest concentration of the antimicrobial substance (peptide dendrimer) that inhibited visible growth of the tested bacteria (yellow) with the unaided eye. For microbiological study the linear peptide LysTyrLysLysAlaLeuLysLysLeuAlaLysLeuLeu (SEQ ID No. 1) was used as reference.
(§2) The AMPD library was tested for their antimicrobial activity against B. subtilis BR151, a Gram-positive bacterium and E. coli DH5α, another Gram-negative bacterium, to cover a broader spectrum of different bacteria. […] Therefore no explicit SAR can be established, but clearly the hydrophobic amino acids Ala and Tyr seem to have a significant influence in reducing activity.

[2] = test system: Bacillus subtilis (strain BR151); settings: strain BR151
Procedure: as §1, §2

[3] = test system: Pseudomonas aeruginosa (strain PA01); assay: microbe, parasite or virus in culture; settings: strain
In short: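 P. aeruginosa PAO1 grown overnight in LB, diluted to OD600 0.001 and mixed with ⅔-step peptide dilutions, then incubated at 37 °C for 18–24 h. After MTT staining, the lowest concentration with no visible growth was read by eye as the MIC.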

Structure (SMILES) | MIC E. coli DH5α [1] [µg/mL] | MIC B. subtilis BR151 [2] [µg/mL] | MIC P. aeruginosa PAO1 [3] [µg/mL]
CCCCCC(=O)N[C@@H](CCCCN)C(=O)N[C@@H](CC(C)C)C(=O)NCCCC[C@H](NC(=O)[C@H](CC(C)C)NC(=O)[C@H](CCCCN)NC(=O)CCCCC)C(=O)N[C@@H](CCCCN)C(=O)N[C@@H](CC(C)C)C(=O)NCCCC[C@H](NC(=O)[C@H](CC(C)C)NC(=O)[C@H](CCCCN)NC(=O)[C@H](CCCCNC(=O)[C@H](CC(C)C)NC(=O)[C@H](CCCCN)NC(=O)CCCCC)NC(=O)[C@H](CC(C)C)NC(=O)[C@H](CCCCN)NC(=O)CCCCC)C(=O)N[C@@H](CCCCN)C(=O)N[C@@H](CC(C)C)C(=O)NCCCC[C@H](NC(=O)[C@H](CC(C)C)NC(=O)[C@H](CCCCN)NC(=O)[C@H](CCCCNC(=O)[C@H](CC(C)C)NC(=O)[C@H](CCCCN)NC(=O)[C@H](CCCCNC(=O)[C@H](CC(C)C)NC(=O)[C@H](CCCCN)NC(=O)CCCCC)NC(=O)[C@H](CC(C)C)NC(=O)[C@H](CCCCN)NC(=O)CCCCC)NC(=O)[C@H](CC(C)C)NC(=O)[C@H](CCCCN)NC(=O)[C@H](CCCCNC(=O)[C@H](CC(C)C)NC(=O)[C@H](CCCCN)NC(=O)CCCCC)NC(=O)[C@H](CC(C)C)NC(=O)[C@H](CCCCN)NC(=O)CCCCC)C(=O)N[C@@H](CCCCN)C(=O)N[C@@H](CC(C)C)C(N)=O [MSt-288, (C6KL)8(KKL)4(KKL)2(KKL)] (I: Hexanoyl-KLK([Leu-Lys-Hexanoyl])KLKKLKKL-NH2 / II: Hexanoyl-KLK([Leu-Lys-Hexanoyl])KLKKL / III: Hexanoyl-KLK([Leu-Lys-Hexanoyl])KL / IV: Hexanoyl-KLK([Leu-Lys-Hexanoyl])KL; amide I:6-IV:C, I:9-II:C, II:6-III:C) | 5 (≈ 0.94 µM) | 1 (≈ 0.188 µM) | 2 (≈ 0.376 µM)
CCCCCCCCCCCCCCCCCC(=O)NCCCC[C@H](NC(=O)[C@H](CC(C)C)NC(=O)[C@H](CCCCN)NC(=O)[C@H](CCCCNC(=O)[C@H](CC(C)C)NC(=O)[C@H](CCCCN)NC(=O)[C@H](CCCCNC(=O)[C@H](CC(C)C)NC(=O)[C@H](CCCCN)NC(=O)[C@H](CCCCNC(=O)[C@H](CC(C)C)NC(=O)[C@@H](N)CCCCN)NC(=O)[C@H](CC(C)C)NC(=O)[C@@H](N)CCCCN)NC(=O)[C@H](CC(C)C)NC(=O)[C@H](CCCCN)NC(=O)[C@H](CCCCNC(=O)[C@H](CC(C)C)NC(=O)[C@@H](N)CCCCN)NC(=O)[C@H](CC(C)C)NC(=O)[C@@H](N)CCCCN)NC(=O)[C@H](CC(C)C)NC(=O)[C@H](CCCCN)NC(=O)[C@H](CCCCNC(=O)[C@H](CC(C)C)NC(=O)[C@H](CCCCN)NC(=O)[C@H](CCCCNC(=O)[C@H](CC(C)C)NC(=O)[C@@H](N)CCCCN)NC(=O)[C@H](CC(C)C)NC(=O)[C@@H](N)CCCCN)NC(=O)[C@H](CC(C)C)NC(=O)[C@H](CCCCN)NC(=O)[C@H](CCCCNC(=O)[C@H](CC(C)C)NC(=O)[C@@H](N)CCCCN)NC(=O)[C@H](CC(C)C)NC(=O)[C@@H](N)CCCCN)C(N)=O [MSt-284, (KL)8(KKL)4(KKL)2(KKLKC18)] (I: H-KLK([Leu-Lys])KLKKLKKLK(Stearoyl)-NH2 / II: H-KLK([Leu-Lys])KLKKL / III: H-KLK([Leu-Lys])KL / IV: H-KLK([Leu-Lys])KL; amide I:6-IV:C, I:9-II:C, II:6-III:C) | 3 (≈ 0.609 µM) | 6 (≈ 1.22 µM) | 9 (≈ 1.83 µM)
CCCCCCCCCC(=O)NCCCC[C@H](NC(=O)[C@H](CC(C)C)NC(=O)[C@H](CCCCN)NC(=O)[C@H](CCCCNC(=O)[C@H](CC(C)C)NC(=O)[C@H](CCCCN)NC(=O)[C@H](CCCCNC(=O)[C@H](CC(C)C)NC(=O)[C@H](CCCCN)NC(=O)[C@H](CCCCNC(=O)[C@H](CC(C)C)NC(=O)[C@@H](N)CCCCN)NC(=O)[C@H](CC(C)C)NC(=O)[C@@H](N)CCCCN)NC(=O)[C@H](CC(C)C)NC(=O)[C@H](CCCCN)NC(=O)[C@H](CCCCNC(=O)[C@H](CC(C)C)NC(=O)[C@@H](N)CCCCN)NC(=O)[C@H](CC(C)C)NC(=O)[C@@H](N)CCCCN)NC(=O)[C@H](CC(C)C)NC(=O)[C@H](CCCCN)NC(=O)[C@H](CCCCNC(=O)[C@H](CC(C)C)NC(=O)[C@H](CCCCN)NC(=O)[C@H](CCCCNC(=O)[C@H](CC(C)C)NC(=O)[C@@H](N)CCCCN)NC(=O)[C@H](CC(C)C)NC(=O)[C@@H](N)CCCCN)NC(=O)[C@H](CC(C)C)NC(=O)[C@H](CCCCN)NC(=O)[C@H](CCCCNC(=O)[C@H](CC(C)C)NC(=O)[C@@H](N)CCCCN)NC(=O)[C@H](CC(C)C)NC(=O)[C@@H](N)CCCCN)C(N)=O [MSt-266, (KL)8(KKL)4(KKL)2(KKLKC10)] (I: H-KLK([Leu-Lys])KLKKLKKLK(Decanoyl)-NH2 / II: H-KLK([Leu-Lys])KLKKL / III: H-KLK([Leu-Lys])KL / IV: H-KLK([Leu-Lys])KL; amide I:6-IV:C, I:9-II:C, II:6-III:C) | 1 (≈ 0.208 µM) | 4 (≈ 0.83 µM) | 1 (≈ 0.208 µM)
CC(C)C[C@H](NC(=O)[C@H](CCN)NC(=O)[C@H](CCCCNC(=O)[C@H](CC(C)C)NC(=O)[C@@H](N)CCN)NC(=O)[C@H](CC(C)C)NC(=O)[C@@H](N)CCN)C(=O)NCCCC[C@H](NC(=O)[C@H](CC(C)C)NC(=O)[C@H](CCN)NC(=O)[C@H](CCCCNC(=O)[C@H](CC(C)C)NC(=O)[C@@H](N)CCN)NC(=O)[C@H](CC(C)C)NC(=O)[C@@H](N)CCN)C(=O)N[C@@H](CCN)C(=O)N[C@@H](Cc1c[nH]c2ccccc12)C(=O)NCCCC[C@H](NC(=O)[C@H](Cc1c[nH]c2ccccc12)NC(=O)[C@H](CCN)NC(=O)[C@H](CCCCNC(=O)[C@H](CC(C)C)NC(=O)[C@H](CCN)NC(=O)[C@H](CCCCNC(=O)[C@H](CC(C)C)NC(=O)[C@@H](N)CCN)NC(=O)[C@H](CC(C)C)NC(=O)[C@@H](N)CCN)NC(=O)[C@H](CC(C)C)NC(=O)[C@H](CCN)NC(=O)[C@H](CCCCNC(=O)[C@H](CC(C)C)NC(=O)[C@@H](N)CCN)NC(=O)[C@H](CC(C)C)NC(=O)[C@@H](N)CCN)C(=O)N[C@@H](CCN)C(=O)N[C@@H](Cc1c[nH]c2ccccc12)C(N)=O [MSt-203, (DabL)8(KDabL)4(KDabW)2(KDabW)] (I: H-[Dab]LK([Leu-Dab])[Dab]LK[Dab]WK[Dab]W-NH2 / II: H-[Dab]LK([Leu-Dab])[Dab]LK[Dab]W / III: H-[Dab]LK([Leu-Dab])[Dab]L / IV: H-[Dab]LK([Leu-Dab])[Dab]L; amide I:6-IV:C, I:9-II:C, II:6-III:C; N-terminus assumed) | 2 (≈ 0.462 µM) | 2 (≈ 0.462 µM) | 2 (≈ 0.462 µM)

Reference: patent US10336792B2, “Antimicrobial peptide dendrimers” (priority 2014, dated 2019)
